From patent US20250288576A1, “SPECIFIC TETRADENTATE COPPER CHELATORS AS ANTICANCER AGENTS” (Guangdong University of Technology, priority 2024, published 2025) come the findings set out here.

In series [1] the test system is immortalized keratinocyte cell line HaCaT. Kind of series: MTT cell viability assay, HaCaT (non-cancer reference). The format is cell-based, human. As to conditions: 48 h incubation, non-cancer cells, mean ± SD of at least three experiments. The procedure:
(§1) The cytotoxicity of several compounds from the TDMQ series, especially TDMQ20, was evaluated on several human cancer cell lines. The clinically used anticancer drug 5-fluorouracil (5-FU) was used as comparator.
(§2) The targeted human cancer lines were 1) the metastatic melanoma A375, 2) the non-small cell lung adenocarcinoma A549, 3) the melanoma COLO-829, 4) the cervical cancer HeLa, 5) the hepatocellular carcinoma HepG2. The human immortalized keratinocyte cell line HaCaT was used as non-cancer reference cell line.
(§3) The MTT test was used to measure the cell viability. In this test, the applied colorless tetrazolium salt is reduced by mitochondrial succinate dehydrogenase, thus producing the violet formazan derivative that is quantified by UV-visible spectrometry at 570 nm.
For orientation: Formazan colour is commonly taken as a measure of viable cells.

For series [2], the system named is melanoma COLO-829. Kind of series: MTT cell viability assay, COLO-829. The format is cell-based. Conditions: Homo sapiens, 48 h incubation, mean ± SD of at least three experiments. The procedure: as §1, §2, §3
Series [3] relates to non-small cell lung adenocarcinoma A549. Nature of the series: MTT cell viability assay, A549. It is filed as cell-based, human. As to conditions: for IC50: MTT, 48 h incubation, mean ± SD of at least three experiments. The procedure:
as §1, §2, §3

The subject of series [4] is hepatocellular carcinoma HepG2. Nature of the series: MTT cell viability assay, HepG2. The format is cell-based, human. Conditions: 48 h incubation, mean ± SD of at least three experiments. The procedure:
as §1, §2, §3

Series [5] deals with cervical cancer HeLa. Nature of the series: MTT cell viability assay, HeLa. It is filed as cell-based, human. As to conditions: 48 h incubation, mean ± SD of at least three experiments. The procedure:
as §1, §2, §3

In series [6] the test system is metastatic melanoma A375. Nature of the series: MTT cell viability assay, A375. The format is cell-based. Conditions: Homo sapiens, A-375, 48 h incubation, mean ± SD of at least three experiments. The procedure:
as §1, §2, §3

Series [7] has as its system HeLa cells. Nature of the series: Apoptosis, annexin V-FITC/PI flow cytometry. It is filed as cell-based, human. Conditions: 48 h incubation. The procedure:
FIG. 3. Pro-apoptotic activity of TDMQ20 on HeLa cells after 48 h of incubation. (A) Quantitative analysis of necrotic cells (quadrant Q1), early apoptotic cells (quadrant Q2), advanced apoptotic cells (quadrant Q3) and non-apoptotic cells (quadrant Q4), using annexin V/propidium iodide (PI) staining and detection by flow cytometry. “Control” stands for untreated cells. (B) Histograms represent the proportion of apoptotic cells (Q2+Q3) within the flow cytometry charts; “ns” stands for p>0.05, ****p<0.0001 vs. control.
The pro-apoptotic activity of TDMQ20 in Hela cells was evaluated after 48 h of incubation with the drug, using the annexin V-FITC/PI method (FITC and PI stand for fluoresceine-5-isothiocyanate and propidium iodide, respectively). After staining, live cells show little or no fluorescence (annexin V−/PI−), early apoptosis cells show green fluorescence (annexin V+/PI−), late apoptosis cells and necrosis cells show red and green fluorescence (annexin V+/PI+). Cells were detected by flow cytometry. IDEAS software was used for acquisition of data and FlowJo v. X software was used for analysis of data. The total proportion of apoptotic cells, including early apoptosis (quadrants Q2) or late apoptosis (quadrants Q3) or necrosis (quadrants Q1), accounted for 51%, 15% and 9% when HeLa cells were treated with TDMQ20 at the concentration of […], 7.3 μM and 3.7 μM, respectively. So, TDMQ20 induced the apoptosis of HeLa cells in a dose-dependent manner.
Background: A flow cytometer gives signals particle by particle.

Series [8] relates to HeLa cells. Kind of series: Colony-forming assay. The format is cell-based, human. As to conditions: 14th day after treatment. The procedure:
(A) Representative images of colonies formed by HeLa cells at the 14th day after treatment with increasing concentrations of TDMQ20. (B) Quantitative analysis of this clonogenicity assay. **p<0.01, ****p<0.0001 vs. control. “Control” stands for untreated cells.
Colony-forming assay. The proliferation of HeLa cells exposed to various concentrations of TDMQ20 was evaluated at the 14th day after treatment.

The subject of series [9] is HeLa cells. Kind of series: Mitochondrial membrane potential, JC-1 staining flow cytometry. Conditions: increasing concentration of TDMQ20, 48 h. The format is cell-based, human. From the text:
FIG. 5. (A) Red/green fluorescence of HeLa cells treated with various concentrations of TDMQ20, and stained by JC-1, as an indirect measure of mitochondrial membrane potential (ΔΨm). Detection by flow cytometry. (B) Histograms presenting data of panel A as mean values of three independent experiments±SD; ****p<0.0001 vs. control.
The higher is the ΔΨm, the more elevated is the red shift of the dye (more aggregates formed); vice-versa, the lower is the ΔΨm of the mitochondria and the lower is the red to green ratio of the fluorescent marker (few aggregates formed). Therefore, the ratio of red/green fluorescence intensities is significant of mitochondrial integrity and function, and mitochondrial depolarization is indicated by a reduction in the red to green fluorescence intensity ratio.
This method was used to evaluate the mitochondrial membrane potential in HeLa cells incubated with various concentrations of TDMQ20 for 48 h, using staining with JC-1, and quantification by flow cytometry treated with the FlowJo v. X software.

In series [10] the test system is HeLa cells. Kind of series: ROS production, DCF fluorescence (H2DCF-DA) flow cytometry. It is filed as cell-based, human. As to conditions: 48 h incubation. The procedure:
FIG. 4. ROS production induced by TDMQ20 in HeLa cells, detected by DCF fluorescence after 48 h of incubation. ***p<0.001, ****p<0.0001.
The most straightforward technique for measuring the production of […] in cells is the use of the cell permeable fluorescent probe 2′,7′-dichlorodihydrofluorescein diacetate (H2DCF-DA). In the presence of ROS, predominantly H2O2, H2DCF is rapidly oxidized to 2′,7′-dichlorofluorescein (DCF) which is highly fluorescent, with excitation and emission wavelengths of 498 and 522 nm, respectively. The stained cells were analyzed by flow cytometry and analyzed by the FlowJo v.Xsoftware.

The test system of series [11] is HeLa cells. Nature of the series: Wound healing assay (scratch assay). Conditions: 14.5 μM, 24 h. The format is cell-based, human. The procedure:
(A) Representative images of wounds formed by HeLa cells after treatment with TDMQ20. (B) Quantitative analysis of the wound closure upon treatment by TDMQ20. ****p<0.0001 vs. control. “Control” stands for untreated cells. Scale bar: 250 μm.
Wound healing assay (or “scratch assay”). The migratory ability of Hela cells in the presence of TDMQ20 was evaluated using the wound healing assay monitored by optical microscopy. Measurement after 24 h of the width of the “wound” created in a cell monolayer quantify the migration rate of the cells to close the wound. This method mimics cell migration during wound healing in vivo. For cancer cells, cell migration is involved in several processes such as tumor invasion, neo-angiogenesis and metastasis (X. Wang et al., BMC Pharmacol. Toxicol. 2019, 20, 4).

Take `O=c1[nH]cc(F)c(=O)[nH]1` [5-FU, 5-fluorouracil, reference compound]: the IC50 (commonly the concentration that gives 50% inhibition) in series [1] (Homo sapiens, HaCaT, 48 h) was 30 µM; in [2], 48.7 ± 0.7 µM; in series [3] (Homo sapiens, A549, 48 h), 72.6 ± 10 µM; in [4] (Homo sapiens, HepG2, 48 h) it was 46.7 ± 4.7 µM; in series [5] (Homo sapiens, HeLa, 48 h), 20.3 ± 4.6 µM; in series [6], 68.5 ± 4 µM.
In the case of `CN(C)CCNCCc1ccc2c(Cl)cc(Cl)c(N)c2n1` [TDMQ20], the “Total proportion of apoptotic cells (early, late apoptosis, necrosis)” value in [7] (3.7 μM) amounted to 9%; in series [7] (7.3 μM), 15%; in [7] (14.5 μM) it was 51%. Further, the 50% inhibitory concentration (IC50) in series [1] was 41.1 ± 4.8 µM; in [1] (Homo sapiens, HaCaT, 48 h), 41 µM; in series [2] it was 40.2 ± 4.9 µM; in [3] (Homo sapiens, A549, 48 h), 14 to 16 µM; in series [3] it was 16.2 ± 2.9 µM; in [4] it was 16.6 ± 4.7 µM. In addition, the half-maximal inhibitory concentration (IC50) in series [4] (Homo sapiens, HepG2, 48 h) is 14 to 16 µM; in series [5], 14.5 ± 0.8 µM; in [5] (Homo sapiens, HeLa, 48 h), 14 to 16 µM; in series [6], 38.1 ± 7 µM. For the same molecule, the “HeLa cells in colony-forming assay” value in [8] (TDMQ20 = 12 μM) is “not detectable”. Moreover, in series [8] (increasing drug concentration from 1.5 to 12 μM), the “Number of HeLa cells in cultures (colony-forming ability)” value was “drastically decreased”. In series [9], the “JC-1 red/green fluorescence ratio (mitochondrial transmembrane potential ΔΨm)” value is “drastic decrease”. Also, the “Fluorescence of DCF, % of the control cells” value in series [10] (3.7 μM) stood at 125%; in series [10] (7.3 μM) it was 138%; in [10] (14.5 μM) it was 150%. For the same molecule, the “HeLa cell migration to close a wound” value in series [11] was “significantly inhibited”. Also, the “Cytotoxic activity relative to the reference drug 5-FU” value in series [3] (lung adenocarcinoma A549 cells) is reported as “four times higher”.
